No end group written: not given here.
Experiments:
[1] = system: platelet-rich green fluorescent fibrin clot; assay: In vitro thrombolytic capacity in PPFC on platelet-rich fluorescent fibrin clots; format: cell-based; settings: flow over clot
Description: Glass microscope slides were incubated with collagen suspension in a circular region for 30 min (similar to slide preparation for PPFC-based binding studies) and then gently washed with 1×PBS. PRP with AlexaFluor 488-conjugated fibrinogen (6% v/v of 1.5 mg/mL, green fluorescent) was briefly mixed with α-thrombin and 0.5 M CaCl2), to final concentrations of 5 nM and […] respectively, to initiate clot formation and the mixture was pipetted (100 μl volume) onto the collagen-coated surface region. The clot was allowed to incubate for 1 h and then gently washed with 1×PBS to remove loosely bound components. The slide thus formed with platelet-rich green fluorescent fibrin clot on its surface, was sealed into the parallel plate flow chamber (PPFC) system, to be imaged under the inverted fluorescence microscope. The objective was focused on an area at the edge of the clot such that the initial field of view enabled observation of the green fluorescence of the fibrin clot throughout the whole area of view, and the clot lysis could then be observed as the loss of this fluorescence. […] In this experimental set-up, sPLA2-triggered degradation of clot-bound PMIN vesicles and resultant SK release was expected to convert the plasminogen to plasmin and thereby lyse the fibrin of the clot.

[2] = system: FeCl3-induced carotid artery thrombus; assay: Targeted thrombolysis in vivo (delay of vessel occlusion, FeCl3 carotid thrombosis); design: species or system mouse; settings: ~400 IU SK where loaded, injected ~5 min after thrombus induction
From the text: For targeted thrombolytic capacity assessment, Rhodamine 6G solution was first injected into the right jugular vein of the mouse to render direct fluorescent labeling of circulating platelets and the FeCl3-induced thrombus was created in the carotid as before, such that the formation of the thrombus and extent of vessel occlusion can be observed directly by monitoring the fluorescent platelets in the artery with intra-vital microscopy. For this, the carotid artery was thrombosed as before and […] of Rhodamine 6G solution was injected into the right jugular vein that results in direct fluorescent labeling of circulating platelets. This allows for imaging platelet-rich thrombus formation (and lysis) in real time. […] The effect of these various treatments on delaying the thrombus growth over time was imaged by intravital microscopy, with images recorded for 10 s every minute for the first 10 min and then 10 s every other minute until the end of the experiment. […] The end points of the experiment were: 1) when blood flow had ceased for >30 s due to vessel occlusion, or 2) if occlusion was not observed in 30 min after SK (free or vesicle-encapsulated) administration. […]

| Substance | time to clot lysis (loss of green fluorescence) [1] | delay in vessel occlusion [2] | activation of platelets by aggregometry (platelets) |
| --- | --- | --- | --- |
| streptokinase [free SK] | ≤ 15 min | keeps the artery significantly open due to persistent thrombolysis | – |
| TRYLRIHPQSWVHQI-NH2 [VBP] | – | – | inability of both VBP and CBP to activate platelets |
